Measured values reported in ChEMBL document CHEMBL1201862, “PubChem BioAssay data set” (2004).
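Compound exposure: 48 hours, 5 concentrations, 96-well plates. GI50 = concentration required for 50% inhibition of growth.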 Active and inactive are the calls of the source. No stated cut-off is given here; in the data, active = GI50 up to about 1.1 µM and inactive = higher.

Columns and labels:
Assay in all cases: growth of human tumour cells (NCI), 48 h
MOLT-4 = tested on: MOLT-4
HCC 2998 = tested on: HCC 2998
HCT-116 = tested on: HCT-116
A549 = tested on: A549
MDA-N = tested on: MDA-N
SW-620 = tested on: SW-620
PC-3 = tested on: PC-3
UACC-62 = tested on: UACC-62
SK-OV-3 = tested on: SK-OV-3
SNB-19 = tested on: SNB-19
SF-295 = tested on: SF-295
A498 = tested on: A498
OVCAR-8 = tested on: OVCAR-8
T47D = tested on: T47D
M14 = tested on: M14
RPMI-8226 = tested on: RPMI-8226
HOP-62 = tested on: HOP-62
SR = tested on: SR
NCI-H460 = tested on: NCI-H460
786-0 = tested on: 786-0
Hs-578T = tested on: Hs-578T
COLO 205 = tested on: COLO 205
LOX IMVI = tested on: LOX IMVI
HCT-15 = tested on: HCT-15
ACHN = tested on: ACHN
NCI-H522 = tested on: NCI-H522
RXF 393 = tested on: RXF 393
SNB-75 = tested on: SNB-75
K562 = tested on: K562
NCI/ADR-RES = tested on: NCI/ADR-RES
Malme-3M = tested on: Malme-3M
SK-MEL-2 = tested on: SK-MEL-2
CCRF-CEM = tested on: CCRF-CEM
BT-549 = tested on: BT-549
MDA-MB-435 = tested on: MDA-MB-435
OVCAR-3 = tested on: OVCAR-3
OVCAR-5 = tested on: OVCAR-5
SK-MEL-28 = tested on: SK-MEL-28
OVCAR-4 = tested on: OVCAR-4
IGROV-1 = tested on: IGROV-1
HL-60 = tested on: HL-60
U-251 = tested on: U-251
TK-10 = tested on: TK-10
HT-29 = tested on: HT-29
KM12 = tested on: KM12
SN12C = tested on: SN12C
EKVX = tested on: EKVX
SF-268 = tested on: SF-268
NCI-H23 = tested on: NCI-H23
UO-31 = tested on: UO-31
NCI-H226 = tested on: NCI-H226
CAKI-1 = tested on: CAKI-1
SK-MEL-5 = tested on: SK-MEL-5
SF-539 = tested on: SF-539
HOP-92 = tested on: HOP-92
MCF7 = tested on: MCF7
DU-145 = tested on: DU-145
UACC-257 = tested on: UACC-257
MDA-MB-231 = tested on: MDA-MB-231

Measured: GI50

O=C(N/N=C/C=C/c1ccc([N+](=O)[O-])o1)c1ccc(C(=O)N/N=C/C=C/c2ccc([N+](=O)[O-])o2)cc1
37.4 µM: HCT-15
inactive: MOLT-4 5.42 µM | HCC 2998 12.9 µM | HCT-116 12.7 µM | A549 > 100 µM | MDA-N 29.5 µM | SW-620 19.1 µM | PC-3 > 30.5 µM | UACC-62 > 86.3 µM | SK-OV-3 > 100 µM | SNB-19 43.3 µM | SF-295 > 85.5 µM | A498 > 100 µM | OVCAR-8 13.2 µM | T47D > 40.1 µM | M14 14.8 µM | RPMI-8226 7.62 µM | HOP-62 46.7 µM | SR 17.3 µM | NCI-H460 > 40.8 µM | 786-0 20.1 µM | Hs-578T > 100 µM | COLO 205 36 µM | LOX IMVI 28.1 µM | ACHN 32.6 µM | NCI-H522 24.3 µM | RXF 393 25.9 µM | SNB-75 > 100 µM | K562 33.1 µM | NCI/ADR-RES 36.7 µM | Malme-3M 12.7 µM | SK-MEL-2 > 69.2 µM | CCRF-CEM 1.93 µM | BT-549 > 100 µM | MDA-MB-435 37.2 µM | OVCAR-3 31.7 µM | OVCAR-5 > 100 µM | SK-MEL-28 57 µM | OVCAR-4 > 72.3 µM | IGROV-1 46.8 µM | HL-60 19.8 µM | U-251 17.3 µM | TK-10 31.8 µM | HT-29 72.9 µM | KM12 > 100 µM | SN12C > 37.9 µM | EKVX > 100 µM | SF-268 15.8 µM | NCI-H23 49.8 µM | UO-31 > 67.6 µM | NCI-H226 > 100 µM | CAKI-1 38.6 µM | SK-MEL-5 22.4 µM | SF-539 6.18 µM | HOP-92 > 62.8 µM | MCF7 34.4 µM | DU-145 > 47 µM

COC(=O)c1ccccc1C1CN=NC12Cc1cc3c(cc1C2=O)CCC3 (centres undefined)
inactive: MOLT-4 35.5 µM | HCC 2998 47.1 µM | HCT-116 36.3 µM | A549 63.4 µM | MDA-N 40.7 µM | SW-620 67.6 µM | PC-3 45.5 µM | UACC-62 69.8 µM | SK-OV-3 86.9 µM | SNB-19 57.5 µM | SF-295 54.2 µM | A498 > 100 µM | OVCAR-8 48.2 µM | T47D 56.6 µM | M14 49.4 µM | HOP-62 > 100 µM | NCI-H460 39.9 µM | 786-0 > 100 µM | Hs-578T > 100 µM | COLO 205 41.9 µM | LOX IMVI 26.9 µM | ACHN > 100 µM | NCI-H522 32.9 µM | RXF 393 > 100 µM | UACC-257 40.6 µM | SNB-75 61.4 µM | K562 30.3 µM | NCI/ADR-RES 37.8 µM | Malme-3M 95.9 µM | SK-MEL-2 > 100 µM | CCRF-CEM 29.2 µM | BT-549 > 100 µM | MDA-MB-435 44.5 µM | OVCAR-3 82.4 µM | OVCAR-5 > 100 µM | SK-MEL-28 > 100 µM | OVCAR-4 44.6 µM | IGROV-1 > 100 µM | HL-60 21.4 µM | U-251 70.3 µM | TK-10 > 100 µM | HT-29 87.5 µM | KM12 32.1 µM | SN12C 92.9 µM | EKVX 74.5 µM | SF-268 62.4 µM | NCI-H23 33.3 µM | UO-31 50.5 µM | NCI-H226 80 µM | CAKI-1 > 100 µM | MDA-MB-231 40.1 µM | SK-MEL-5 21.6 µM | SF-539 > 100 µM | HOP-92 30.7 µM | MCF7 49.8 µM | DU-145 > 100 µM
> 100 µM: HCT-15
